In the test the test system is chronic pain. In words: Subjective pain reduction in a person with chronic pain (case report, scale of 0-100% reduction). Type of test: in vivo, human. On the procedure:
The tasks included many different routine physical tasks, but particularly included typing and use of a computer mouse. […] DHEA (50 mg/day) was also taken alone orally for three weeks. […] The degree was subjective based on a scale of 0-100% reduction, where 0% was no pain reduction and 100% was total pain elimination.
In addition to treatment with DHEA alone, the person of Example 1, was also treated with Nortriptyline alone and with a combination of 75 mg per day DHEA and 10 mg per day Nortriptyline.

In the case of `C[C@]12CC[C@H](O)CC1=CC[C@@H]1[C@@H]2CC[C@]2(C)C(=O)CC[C@@H]12` [DHEA, dehydroepiandrosterone], the reduction in pain result (50 mg/day alone orally for three weeks, by the end of the second week, subjective scale 0-100%) is “approximately 25%”. Further, the “pain remaining, of the original pain” value (doses of 75 mg and I 00 mg for three weeks each, after 50 mg/day) is given as “less than 50%”.
Regarding `CNCCC=C1c2ccccc2CCc2ccccc21` [Nortriptyline], the reduction in pain result (alone, 10 mg per day) is given as “about 20%”. Besides, for the setting “alone, 25 and 50 mg doses”, the “reduction in pain compared with 10 mg per day” value is “to greater extent”.
`Cc1ccc(-c2cc(C(F)(F)F)nn2-c2ccc(S(N)(=O)=O)cc2)cc1` [celecoxib]: for the setting “400 mg/day alone, subjective scale, 0% no pain reduction, 100% total pain elimination”, the reduction in pain entry is on record as “approximately 25%”.
In the case of `NCC1(CC(=O)O)CCCCC1` [gabapeatin, gabapentin], the pain relief entry (treatment with the drug alone, person with 5 year history of chronic pain) is on record as “did not result in pain relief”.

Values taken from patent publication US20060178354A1, “Methods and compositions for the treatment of chronic pain using dhea and derivatives thereof” (priority 2003, published 2006).
